Data taken from patent US20180006232A1, “HETEROCYCLIC COMPOUND, LIGHT-EMITTING ELEMENT, LIGHT-EMITTING DEVICE, ELECTRONIC APPLIANCE, AND LIGHTING DEVICE” (Semiconductor Energy Laboratory Co., Ltd., priority 2014, published 2018).
Read-outs that look alike come from different tables or passages of the source.

Experiment: Examination of solubility in organic solvents
Assay type: physicochemical
Conditions: for solubility: organic solvent or mixture, thermodynamic from solid
From the text: The heterocyclic compound which is one embodiment of the present invention and used in this example was 2mFBPDBq (sample 1). Note that 2mFBPDBq was synthesized by the synthesis method described in Example 1. In addition, the compound used for comparison was 2mDBTBPDBq-II (comparison sample 2). The purity of each compound was 99.9%. The structural formulae of the compounds are shown below.
The solvents used in this example were the four kinds of solvents: toluene, chloroform, ethyl acetate, and acetone.
A method of examining the solubility of the compound of each sample is described. First, 10 mg of the compound was put into a small bottle and to this was added 1 mL of a solvent. Then, whether the compound was dissolved at room temperature or not was checked. When the compound was not dissolved at room temperature, ultrasonic wave irradiation and then heating using a dryer were performed, so that whether the compound was dissolved was checked.
When the compound was not dissolved after heating, the volume of the solvent was increased to 10 mL, so that whether the compound was dissolved at room temperature was checked. When the compound was not dissolved at room temperature, ultrasonic wave irradiation and then heating using a dryer were performed, so that whether the compound was dissolved was checked.

| Compound | solubility | Solubility in Acetone (acetone, 10 mg compound in 1 mL, then 10 mL, room temperature, then ultrasonic wave irradiation and heating) | Solubility in Chloroform (chloroform, 10 mg compound in 1 mL, then 10 mL, room temperature, then ultrasonic wave irradiation and heating) | Solubility in Ethyl acetate (ethyl acetate, 10 mg compound in 1 mL, then 10 mL, room temperature, then ultrasonic wave irradiation and heating) | solubility (toluene, 10 mg compound in 1 mL, then 10 mL, room temperature, then ultrasonic wave irradiation and heating, read-out: Solubility in Toluene) | Solubility compared with comparison compound 2mDBTBPDBq-II (organic solvents (toluene, chloroform, ethyl acetate, acetone), summary in words) |
| --- | --- | --- | --- | --- | --- | --- |
| c1cc(-c2cccc(-c3cccc4c3sc3ccccc34)c2)cc(-c2cnc3c4ccccc4c4ccccc4c3n2)c1 [2mDBTBPDBq-II, 2-[3′-(dibenzothiophen-4-yl)biphenyl-3-yl]dibenzo[f,h]quinoxaline, reference compound] | < 1000 µg/mL |  |  |  |  |  |
| CC1(C)c2ccccc2-c2ccc(-c3cccc(-c4cccc(-c5cnc6c7ccccc7c7ccccc7c6n5)c4)c3)cc21 [2mFBPDBq, 2-{3-[3-(9,9-dimethylfluoren-2-yl)phenyl]phenyl}dibenzo[f,h]quinoxaline] |  | □ (dissolved at 10 mg/10 mL when heated) | ◯ (dissolved at 10 mg/mL when heated) | □ (dissolved at 10 mg/10 mL when heated) | > 10000 µg/mL | higher solubility |
